According to the supplement of paper PMC10883282:

Assays:
Assay in all cases: relative viability vs DMSO control (72 h) (fraction); higher = more viable cells
SW982 = test system: SW982
Summary of the method: (§1)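 Sarcoma cell lines were seeded in 384-well plates at densities chosen for 80–90% confluence, then 24 h later given 2.5 µl of serially diluted compound drawn from source plates spanning 10 mM to 0.0002 mM. They were held 72 h at 37 °C, 5% CO2, with 0.1% DMSO vehicle and a 5 µM positive control included. Relative viability was read with ATPLite as percent growth and averaged over up to triplicate wells. Rescaling placed full at 1 and none at 0.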

SK-ES-1 = test system: SK-ES-1
Summary of the method: as §1

RD = test system: RD
Summary of the method: as §1

KHOS-240S = test system: KHOS-240S
Summary of the method: as §1

RD-ES = test system: RD-ES
Summary of the method: as §1

O=C(Nc1ccc(OC(F)(F)Cl)cc1)c1cnc(N2CC[C@@H](O)C2)c(-c2cc[nH]n2)c1 [Asciminib]
relative viability
Settings	KHOS-240S	RD	RD-ES	SK-ES-1	SW982
0.00017 µM	1.04	1.05	0.944	0.975	0.974
0.00051 µM	1.01	1.049	0.942	0.999	0.978
0.00152 µM	1.02	1.067	0.927	1	1
0.00457 µM	1.02	1.08	0.926	1	0.975
0.01372 µM	1.03	1.05	0.908	0.992	1.01
0.04115 µM	1.009	1.092	0.895	1.01	1.01
0.1235 µM	0.9965	1.088	0.915	1.01	1.01
0.3704 µM	1.04	1.11	0.889	1.02	1.04
1.111 µM	1.03	1.04	0.852	0.995	1.05
3.333 µM	0.977	1.07	0.849	0.906	1.01
10 µM	0.632	0.984	0.748	0.814	0.858

Cn1cc(C2=C(c3cn(C4CCN(Cc5ccccn5)CC4)c4ccccc34)C(=O)NC2=O)c2ccccc21 [Enzastaurin]
relative viability
Settings	KHOS-240S	RD	RD-ES	SK-ES-1	SW982
0.00017 µM	1.06	1.08	0.992	1.09	1.06
0.00051 µM	1.1	1.07	0.997	1.06	1.06
0.00152 µM	1.08	1.08	1	1.11	1.08
0.00457 µM	1.09	1.1	1.01	1.08	1.08
0.01372 µM	1.1	1.1	0.996	1.11	1.08
0.04115 µM	1.09	1.09	1.01	1.08	1.069
0.1235 µM	1.07	1.1	1.01	1.08	1.05
0.3704 µM	1.08	1.1	0.981	1.04	1.06
1.111 µM	1.08	1.12	1.02	1.11	1.012
3.333 µM	1.01	1.1	1.02	1.1	0.903
10 µM	0.732	0.978	1.04	0.914	0.679

CC1(COc2ccc3c(c2)ncn3-c2ccc3cccc(N4CCC(N)CC4)c3n2)COC1 [Crenolanib]
relative viability
Settings	KHOS-240S	RD	RD-ES	SK-ES-1	SW982
0.00017 µM	0.97	1.02	0.949	0.997	0.937
0.00051 µM	0.957	1.05	0.958	0.993	0.9575
0.00152 µM	1.01	1.04	0.957	1.01	0.947
0.00457 µM	1.02	1.05	0.975	1.05	0.974
0.01372 µM	1.01	1.07	0.958	1.02	0.965
0.04115 µM	1.023	1.05	0.969	1.02	0.971
0.1235 µM	0.986	1.06	0.97	1.014	0.969
0.3704 µM	0.963	1.1	0.994	0.949	0.952
1.111 µM	0.844	1.11	0.915	0.675	0.679
3.333 µM	0.476	0.955	0.359	0.188	0.352
10 µM	0.134	0.02007	0.255	0.0214	0.0115
